We go through 19 compounds from US12582654B2, “Cyano-substituted pyridine and cyano-substituted pyrimidine compound and preparation method therefor and application thereof” (BEIJING SCITECH-MQ PHARMACEUTICALS LIMITED, priority 2019, dated 2026).

The target in one experiment is FGFR4 kinase (Homo sapiens, UniProt P22455). The experiment can be described thus: Inhibition of FGFR4 kinase activity (ULight-labeled JAK-1 peptide, EU665/EU615 reading). It counts as biochemical. As to conditions: FGFR4 kinase 3.85 nM, ATP 100 μM, enzymatic reaction 2 hours. Put shortly: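 TR-FRET kinase assay using 3.85 nM FGFR4, 100 μM ATP and 100 nM ULight-JAK-1 (Tyr1023) peptide; 5 min enzyme–compound preincubation, then 2 h at room temperature. Compounds at 11 3-fold dilutions from 2.5 μM down to 0.042 nM, 1% DMSO. IC50 from EU665/EU615 ratio inhibition curves.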

A further experiment concerns the target FGFR4 V550L kinase (Homo sapiens, UniProt P22455, V550L). Description: Inhibition of FGFR4 V550L mutant kinase activity (ULight-labeled PolyGT, EU665/EU615 reading). In kind it is biochemical. The following applies: FGFR4 V550L kinase 1 nM, ATP 10 μM, enzymatic reaction 2 hours. Put shortly:
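TR-FRET kinase assay: 1 nM FGFR4 V550L, 10 μM ATP, 100 nM ULight-PolyGT substrate, 2 h at room temperature after 5 min compound–enzyme preincubation, 1% DMSO. Compound tested as 11-point 3-fold dilution from 2.5 μM to 0.042 nM final. Signal as EU665/EU615 ratio; IC50 fitted from % inhibition.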

For a further experiment, the target named is T1, Ba/F3 ETV6-FGFR4 cells (Homo sapiens, UniProt P22455).
T1 construct: fused on or other part: N-terminal part of ETV6 (TEL), the oligomerising partner that makes the FGFR4 kinase constitutively active; P41212 (Transcription factor ETV6)
Description: Inhibition of cell proliferation (CCK-8), Ba/F3 ETV6-FGFR4 cells. The following applies: 72 hours of incubation, read-out: Ba/F3 ETV6-FGFR4 IC50. It counts as cell-based. Put shortly: (§1)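 Ba/F3 cells expressing ETV6-FGFR4 or ETV6-FGFR4-V550L exposed for 72 h to 9 concentrations from 4-fold serial dilution (0.25% DMSO final). Viability by CCK-8, OD 450 nm after 1–2 h at 37 °C, relative to untreated and cell-free blanks; IC50 from curve fitting.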

Experiment [1] addresses T2, Ba/F3 ETV6-FGFR4-V550L cells (Homo sapiens, UniProt P22455, V550L, cells depend on it).
T2 construct: fused on or other part: N-terminal part of ETV6 (TEL), the oligomerising partner of the fusion; already named as the first entry; P41212 (Transcription factor ETV6)
The experiment can be described thus: Inhibition of cell proliferation (CCK-8), Ba/F3 ETV6-FGFR4-V550L cells. In kind it is cell-based. As to conditions: 72 hours of incubation, read-out: Ba/F3 ETV6-FGFR4-V550L IC50. Put shortly:
as §1

Structures are written as SMILES. pIC50: −log10 of the molar value. A value given as a limit tells only on which side of the number the result lay.

T1 sequence (P22455 whole entry, change not shown, the tested form may be a part): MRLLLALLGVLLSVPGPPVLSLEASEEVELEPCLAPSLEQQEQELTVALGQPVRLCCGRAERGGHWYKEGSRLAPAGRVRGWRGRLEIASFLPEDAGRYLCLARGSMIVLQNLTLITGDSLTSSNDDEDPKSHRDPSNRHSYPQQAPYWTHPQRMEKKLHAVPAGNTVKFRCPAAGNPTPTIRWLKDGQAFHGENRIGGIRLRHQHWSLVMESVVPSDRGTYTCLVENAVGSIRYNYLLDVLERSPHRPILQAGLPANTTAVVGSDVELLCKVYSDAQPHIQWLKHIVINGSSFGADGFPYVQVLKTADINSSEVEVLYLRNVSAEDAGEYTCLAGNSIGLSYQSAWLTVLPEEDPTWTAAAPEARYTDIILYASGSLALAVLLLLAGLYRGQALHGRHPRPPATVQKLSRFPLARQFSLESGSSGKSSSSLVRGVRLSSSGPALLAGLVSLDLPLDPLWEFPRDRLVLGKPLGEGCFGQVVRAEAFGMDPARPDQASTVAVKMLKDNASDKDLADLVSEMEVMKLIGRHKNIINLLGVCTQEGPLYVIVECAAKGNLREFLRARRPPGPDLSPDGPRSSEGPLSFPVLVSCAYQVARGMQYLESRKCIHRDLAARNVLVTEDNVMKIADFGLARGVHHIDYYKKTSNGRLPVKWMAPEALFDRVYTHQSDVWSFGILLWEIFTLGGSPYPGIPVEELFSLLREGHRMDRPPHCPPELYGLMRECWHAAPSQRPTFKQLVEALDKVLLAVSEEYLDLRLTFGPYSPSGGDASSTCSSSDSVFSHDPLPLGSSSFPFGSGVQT
FGFR4 kinase, sequence (P22455 22-802): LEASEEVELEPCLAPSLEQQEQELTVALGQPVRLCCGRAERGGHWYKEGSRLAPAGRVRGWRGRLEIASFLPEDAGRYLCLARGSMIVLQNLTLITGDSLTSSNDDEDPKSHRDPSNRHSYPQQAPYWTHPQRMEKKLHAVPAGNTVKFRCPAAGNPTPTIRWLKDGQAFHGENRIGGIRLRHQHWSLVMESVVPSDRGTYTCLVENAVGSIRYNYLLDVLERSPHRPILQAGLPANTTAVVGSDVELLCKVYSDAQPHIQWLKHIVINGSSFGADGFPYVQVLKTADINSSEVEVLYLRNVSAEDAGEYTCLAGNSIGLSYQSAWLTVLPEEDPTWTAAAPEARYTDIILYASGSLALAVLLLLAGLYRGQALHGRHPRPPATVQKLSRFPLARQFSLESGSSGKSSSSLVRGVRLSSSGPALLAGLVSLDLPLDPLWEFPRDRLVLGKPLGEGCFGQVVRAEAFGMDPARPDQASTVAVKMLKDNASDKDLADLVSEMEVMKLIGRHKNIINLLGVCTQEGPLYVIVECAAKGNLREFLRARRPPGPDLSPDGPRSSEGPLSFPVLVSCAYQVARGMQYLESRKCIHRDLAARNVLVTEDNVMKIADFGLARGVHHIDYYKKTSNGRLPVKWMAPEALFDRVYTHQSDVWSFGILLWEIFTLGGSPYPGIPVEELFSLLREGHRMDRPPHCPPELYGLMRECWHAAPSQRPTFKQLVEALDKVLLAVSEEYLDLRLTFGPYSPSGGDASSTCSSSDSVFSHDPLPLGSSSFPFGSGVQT
T2 sequence (P22455 whole entry V550L, the tested form may be a part): as the sequence (P22455 whole entry, change not shown, the tested form may be a part) above, with V550L counted along it
FGFR4 V550L kinase, sequence (P22455 22-802 V550L): as the sequence (P22455 22-802) above, with V529L counted along it

For orientation: pIC50 means the negative decadic logarithm of the IC50, by convention in mol/L. Read a low pIC50 as a large IC50. For `C=CC(=O)Nc1cc(N2CCC(N(C)CCOC)CC2)ccc1Nc1ncc(C#N)c(Nc2ccccc2OC(C)C)n1` [Example 56, N-(2-((5-cyano-4-((2-isopropoxyphenyl)amino)pyrimidin-2-yl)amino)-5-(4-((2-methoxyethyl) (methyl)amino)piperidin-1-yl)phenyl) acrylamide], the pIC50 at FGFR4 kinase is 7.30 to 8.00; against FGFR4 V550L kinase, not below 8.00. Further, the GI50 (on Ba/F3 ETV6-FGFR4 cells; in experiment [1]) was not above 10 nM in each case.

As for `C=CC(=O)Nc1cc(N2CCC(N(C)CCN(C)C)CC2)ccc1Nc1ncc(C#N)c(Nc2ccccc2OC(C)C)n1` [Example 57, N-(2-((5-cyano-4-((2-isopropoxyphenyl)amino)pyrimidin-2-yl)amino)-5-(4-((2-(dimethylamino)ethyl)(methyl)amino)piperidin-1-yl)phenyl) acrylamide], the values for the pIC50 against FGFR4 kinase and against FGFR4 V550L kinase were 7.30 to 8.00 and not below 8.00, respectively. Also, the GI50 (on Ba/F3 ETV6-FGFR4 cells; in experiment [1]) was not above 10 nM throughout.

Consider `C=CC(=O)Nc1cc(N2CCC(N3CCN(CCOC)CC3)CC2)ccc1Nc1ncc(C#N)c(Nc2ccccc2OC(C)C)n1` [Example 58, N-(2-((5-cyano-4-((2-isopropoxyphenyl)amino)pyrimidin-2-yl)amino)-5-(4-(4-(2-methoxyethyl)piperazin-1-yl)piperidin-1-yl)phenyl) acrylamide], for which the pIC50 was 7.30 to 8.00 against FGFR4 kinase and not below 8.00 at FGFR4 V550L kinase. Also, the GI50 (at Ba/F3 ETV6-FGFR4 cells; in experiment [1]) was not above 10 nM throughout.

Take `C=CC(=O)Nc1cc(N2CCC(N3CCN(CCO)CC3)CC2)ccc1Nc1ncc(C#N)c(Nc2ccccc2OC(C)C)n1` [Example 59, N-(2-((5-cyano-4-((2-isopropoxyphenyl)amino)pyrimidin-2-yl)amino)-5-(4-(4-(2-hydroxyethyl)piperazin-1-yl)piperidin-1-yl)phenyl) acrylamide]: the pIC50 is 7.30 to 8.00 at FGFR4 kinase and not below 8.00 at FGFR4 V550L kinase. In addition, the GI50 (on Ba/F3 ETV6-FGFR4 cells; in experiment [1]) was not above 10 nM each time.

As for `C=CC(=O)Nc1cc(N2CCC(N(C)CCO)CC2)ccc1Nc1ncc(C#N)c(Nc2ccccc2OC(C)C)n1` [Example 60, N-(2-((5-cyano-4-((2-isopropoxyphenyl)amino)pyrimidin-2-yl)amino)-5-(4-((2-hydroxyethyl) (methyl)amino)piperidin-1-yl)phenyl) acrylamide], the results for the pIC50 against FGFR4 kinase and against FGFR4 V550L kinase were 7.30 to 8.00 and not below 8.00, respectively. The GI50 (on Ba/F3 ETV6-FGFR4 cells; in experiment [1]) was not above 10 nM throughout.

For the compound `C=CC(=O)Nc1cc(N2CCC(N(C)CCF)CC2)ccc1Nc1ncc(C#N)c(Nc2ccccc2OC(C)C)n1` [Example 61, N-(2-((5-cyano-4-((2-isopropoxyphenyl)amino)pyrimidin-2-yl)amino)-5-(4-((2-fluoroethyl) (methyl)amino)piperidin-1-yl)phenyl) acrylamide], the values for the pIC50 against FGFR4 kinase and against FGFR4 V550L kinase were 7.30 to 8.00 and not below 8.00, respectively. Further, the GI50 (on Ba/F3 ETV6-FGFR4 cells; in experiment [1]) was not above 10 nM in each case.

Take `C=CC(=O)Nc1cc(N2CCC(N(C)C3CCC3)CC2)ccc1Nc1ncc(C#N)c(Nc2ccccc2OC(C)C)n1` [Example 62, N-(2-((5-cyano-4-((2-isopropoxyphenyl)amino)pyrimidin-2-yl)amino)-5-(4-(cyclobutyl(methyl)amino)piperidin-1-yl)phenyl) acrylamide]: the pIC50 against FGFR4 kinase and on FGFR4 V550L kinase was 7.30 to 8.00 in each case. Besides, the GI50 (on Ba/F3 ETV6-FGFR4 cells; in experiment [1]) was not above 10 nM in each case.

On to `C=CC(=O)Nc1cc(N2CCC(N(C)C3CC3)CC2)ccc1Nc1ncc(C#N)c(Nc2ccccc2OC(C)C)n1` [Example 63, N-(2-((5-cyano-4-((2-isopropoxyphenyl)amino)pyrimidin-2-yl)amino)-5-(4-(cyclopropyl (methyl)amino)piperidin-1-yl)phenyl) acrylamide], for which the pIC50 on FGFR4 kinase was not below 8.00; against FGFR4 V550L kinase, 7.30 to 8.00. The GI50 (on Ba/F3 ETV6-FGFR4 cells; in experiment [1]) was not above 10 nM throughout.

With `C=CC(=O)Nc1cc(N2CCC(N3CCC(F)CC3)CC2)ccc1Nc1ncc(C#N)c(Nc2ccccc2OC(C)C)n1` [Example 64, N-(2-((5-cyano-4-((2-isopropoxyphenyl)amino)pyrimidin-2-yl)amino)-5-(4-fluoro-[1,4-bipiperidin]-1‘- yl)phenyl) acrylamide], the pIC50 against FGFR4 kinase and on FGFR4 V550L kinase was 7.30 to 8.00 in each case. For the same compound, the GI50 (on Ba/F3 ETV6-FGFR4 cells; in experiment [1]) was not above 10 nM in each case.

As to `C=CC(=O)Nc1cc(N2CCC(N3CCC(O)CC3)CC2)ccc1Nc1ncc(C#N)c(Nc2ccccc2OC(C)C)n1` [Example 65, N-(2-((5-cyano-4-((2-isopropoxyphenyl)amino)pyrimidin-2-yl)amino)-5-(4-hydroxy-[1,4-bipiperidin]-1′-yl)phenyl) acrylamide], the results for the pIC50 against FGFR4 kinase and at FGFR4 V550L kinase were 7.30 to 8.00 and not below 8.00, respectively. Also, the GI50 (at Ba/F3 ETV6-FGFR4 cells; in experiment [1]) was not above 10 nM each time.

For the compound `C=CC(=O)Nc1cc(N2CCC(N3CCC(C#N)CC3)CC2)ccc1Nc1ncc(C#N)c(Nc2ccccc2OC(C)C)n1` [Example 66, N-(2-((5-cyano-4-((2-isopropoxyphenyl)amino)pyrimidin-2-yl)amino)-5-(4-cyano-[1,4-bipiperidin]-1′-yl)phenyl) acrylamide], the pIC50 was not below 8.00 on FGFR4 kinase and 7.30 to 8.00 against FGFR4 V550L kinase. For the same compound, the GI50 (at Ba/F3 ETV6-FGFR4 cells; in experiment [1]) was not above 10 nM throughout.

On to `C=CC(=O)Nc1cc(N2CCC(N(C)CC(C)(C)O)CC2)ccc1Nc1ncc(C#N)c(Nc2ccccc2OC(C)C)n1` [Example 67, N-(2-((5-cyano-4-((2-isopropoxyphenyl)amino)pyrimidin-2-yl)amino)-5-(4-((2-hydroxy-2-methylpropyl) (methyl)amino)piperidin-1-yl)phenyl) acrylamide], for which the pIC50 was 7.30 to 8.00 on FGFR4 kinase and not below 8.00 on FGFR4 V550L kinase. For the same compound, the GI50 (on Ba/F3 ETV6-FGFR4 cells; in experiment [1]) was not above 10 nM in each case.

Take `C=CC(=O)Nc1cc(N2CCC(N(C)CCCO)CC2)ccc1Nc1ncc(C#N)c(Nc2ccccc2OC(C)C)n1` [Example 68, N-(2-((5-cyano-4-((2-isopropoxyphenyl)amino)pyrimidin-2-yl)amino)-5-(4-((3-hydroxypropyl) (methyl)amino)piperidin-1-yl)phenyl) acrylamide]: the negative-log IC50 (pIC50) at FGFR4 kinase and at FGFR4 V550L kinase was not below 8.00 in each case. The GI50 (on Ba/F3 ETV6-FGFR4 cells; in experiment [1]) was not above 10 nM each time.

With `C=CC(=O)Nc1cc(N2CCC(N(C)CCCOC)CC2)ccc1Nc1ncc(C#N)c(Nc2ccccc2OC(C)C)n1` [Example 69, N-(2-((5-cyano-4-((2-isopropoxyphenyl)amino)pyrimidin-2-yl)amino)-5-(4-((3-methoxypropyl) (methyl)amino)piperidin-1-yl)phenyl) acrylamide], the pIC50 at FGFR4 kinase and against FGFR4 V550L kinase was not below 8.00 in each case. Also, the GI50 (on Ba/F3 ETV6-FGFR4 cells; in experiment [1]) was not above 10 nM throughout.

Regarding `C=CC(=O)Nc1cc(N2CCC(N3CCC3)CC2)ccc1Nc1ncc(C#N)c(Nc2ccccc2OC(C)C)n1` [Example 70, N-(5-(4-(azetidin-1-yl)piperidin-1-yl)-2-((5-cyano-4-((2-isopropoxyphenyl)amino)pyrimidin-2-yl)amino)phenyl) acrylamide], the negative-log IC50 (pIC50) on FGFR4 kinase is 7.00 to 7.30; at FGFR4 V550L kinase, not below 8.00. The GI50 (on Ba/F3 ETV6-FGFR4 cells; in experiment [1]) was not above 10 nM in each case.

As for `C=CC(=O)Nc1cc(N2CCC(N3CCC(F)(F)CC3)CC2)ccc1Nc1ncc(C#N)c(Nc2ccccc2OC(C)C)n1` [Example 71, N-(2-((5-cyano-4-((2-isopropoxyphenyl)amino)pyrimidin-2-yl)amino)-5-(4,4-difluoro-[1,4-bipiperidin]-1′-yl)phenyl) acrylamide], the pIC50 at FGFR4 kinase was not below 8.00; against FGFR4 V550L kinase, 7.00 to 7.30. The figures for the GI50 (on Ba/F3 ETV6-FGFR4 cells; in experiment [1]) were not above 10 nM and 10 to 50 nM, respectively.

Take `C=CC(=O)Nc1cc(N2CCC(N(C)C3COC3)CC2)ccc1Nc1ncc(C#N)c(Nc2ccccc2OC(C)C)n1` [Example 72, N-(2-((5-cyano-4-((2-isopropoxyphenyl)amino)pyrimidin-2-yl)amino)-5-(4-(methyl(oxetan-3-yl)amino)piperidin-1-yl)phenyl) acrylamide]: the pIC50 against FGFR4 kinase is not below 8.00; against FGFR4 V550L kinase, 7.30 to 8.00. Further, the GI50 (at Ba/F3 ETV6-FGFR4 cells; in experiment [1]) was not above 10 nM in each case.

Take `C=CC(=O)Nc1cc(N2CCC(N(C)CCSC)CC2)ccc1Nc1ncc(C#N)c(Nc2ccccc2OC(C)C)n1` [Example 73]: the pIC50 against FGFR4 kinase and on FGFR4 V550L kinase was not below 8.00 throughout. Besides, the GI50 (on Ba/F3 ETV6-FGFR4 cells; in experiment [1]) was not above 10 nM in each case.

As to `C=CC(=O)Nc1cc(N2CCC(N(C)CCCSC)CC2)ccc1Nc1ncc(C#N)c(Nc2ccccc2OC(C)C)n1` [Example 74], the pIC50 on FGFR4 kinase and at FGFR4 V550L kinase was not below 8.00 throughout. Also, the figures for the GI50 (at Ba/F3 ETV6-FGFR4 cells; in experiment [1]) were not above 10 nM and 10 to 50 nM, respectively.
